In ChEMBL document CHEMBL3091350, “Synthesis and evaluation of the antimalarial, anticancer, and caspase 3 activities of tetraoxane dimers” (Bioorg Med Chem, 2013):
Calls of active or inactive are those of the source. The calls are words filed in the database; no cut-off is given here.

Legend:
[1] = Cytotoxicity against human HT29-AK cells assessed as cell viability after 24 hrs by MTT assay; assay type: functional, cell-based
Plasmodium falciparum [2] = experiment: Antimalarial activity against chloroquine-resistant Plasmodium falciparum K1 assessed as parasite growth inhibition after 48 hrs by SYBR green-1 dye-based fluorescence assay; assay type: functional, organism-based; conditions: K1, 48 h
Plasmodium falciparum [3] = experiment: Antimalarial activity against chloroquine-sensitive Plasmodium falciparum 3D7 assessed as parasite growth inhibition after 48 hrs by SYBR green-1 dye-based fluorescence assay; assay type: functional, organism-based; conditions: 3D7, 48 h
HL-60 [4] = experiment: Cytotoxicity against human HL60 cells assessed as cell viability after 24 hrs by MTT assay; assay type: functional, cell-based; conditions: HL-60, 24 h
[5] = Therapeutic index, ratio of IC50 for human KB cells to IC50 for chloroquine-resistant Plasmodium falciparum K1; assay type: cell-based; conditions: read-out: Ratio IC50
KB = experiment: Cytotoxicity against human KB cells assessed as cell viability after 24 hrs by MTT assay; assay type: functional, cell-based
HL-60 [6] = experiment: Induction of apoptosis in human HL60 cells assessed as activation of caspase-3 activity at 9.4 to 28.2 uM after 24 hrs by flow cytometric analysis; assay type: functional, cell-based
Plasmodium berghei [7] = experiment: Antimalarial activity against Plasmodium berghei ANKA infected in po dosed mouse assessed as inhibition of parasitemia administered for 3 days post-infection measured on day 4 by Giemsa staining; assay type: functional
Plasmodium berghei [8] = experiment: Antimalarial activity against Plasmodium berghei ANKA infected in mouse assessed as inhibition of parasitemia at 3 mg/kg, po administered for 3 days post-infection measured on day 4 by Giemsa staining relative to control; assay type: functional
Plasmodium berghei [9] = experiment: Antimalarial activity against Plasmodium berghei ANKA infected in mouse assessed as inhibition of parasitemia at 10 mg/kg, po administered for 3 days post-infection measured on day 4 by Giemsa staining relative to control; assay type: functional
Plasmodium berghei [10] = experiment: Antimalarial activity against Plasmodium berghei ANKA infected in mouse assessed as inhibition of parasitemia at 30 mg/kg, po administered for 3 days post-infection measured on day 4 by Giemsa staining relative to control; assay type: functional
Plasmodium berghei [11] = experiment: Antimalarial activity against Plasmodium berghei ANKA infected in mouse assessed as inhibition of parasitemia at 1 mg/kg, po administered for 3 days post-infection measured on day 4 by Giemsa staining relative to control; assay type: functional
HL-60 [12] = experiment: Induction of apoptosis in human HL60 cells assessed as activation of caspase-3 activity at 0.2 to 0.6 uM after 24 hrs by flow cytometric analysis; assay type: functional, cell-based
Plasmodium falciparum [13] = experiment: Antimalarial activity against chloroquine-sensitive Plasmodium falciparum 3D7; assay type: functional, organism-based
HL-60 [14] = experiment: Induction of apoptosis in human HL60 cells assessed as activation of caspase-3 activity at 10.1 to 30.3 uM after 24 hrs by flow cytometric analysis; assay type: functional, cell-based

Row | SMILES | IC50 [1] [nM] | IC50 (Plasmodium falciparum [2]) [nM] | IC50 (Plasmodium falciparum [3]) [nM] | IC50 (HL-60 [4]) [nM] | selectivity ratio [5] | IC50 (KB) [nM] | other results
1 | CC1(CCC(=O)NCc2cccc(CNC(=O)CCC3(C)OOC4(CCCCC4)OO3)c2)OOC2(CCCCC2)OO1 (stereo unspecified) | 32800 | 136 | 416 | 34300 | 452 | 63100 | 
2 | CC1(CCC(=O)Nc2cccc(N)c2)OOC2(CCCCC2)OO1 | 75800 |  | 102 | 31200 |  |  | 
3 | O=C(CC1CCC2(CC1)OOC1(OO2)C2CC3CC(C2)CC1C3)NCc1cccc(CNC(=O)CC2CCC3(CC2)OOC2(OO3)C3CC4CC(C3)CC2C4)c1 (stereo unspecified) | 90200 |  | 4 | 18800 |  |  | Activity (HL-60 [6]): Active
4 | O=C(CC1CCC2(CC1)OOC1(OO2)C2CC3CC(C2)CC1C3)NCCCCNC(=O)CC1CCC2(CC1)OOC1(OO2)C2CC3CC(C2)CC1C3 (stereo unspecified) |  | 2.7 | 11.2 |  | 1870 | 5040 | ED50 (Plasmodium berghei [7]): 16.1 mg/kg; inhibition in vivo at 3 mg/kg (Plasmodium berghei [8]): 27.5%; inhibition in vivo at 10 mg/kg (Plasmodium berghei [9]): 49.6%; inhibition in vivo at 30 mg/kg (Plasmodium berghei [10]): 54.8%; inhibition in vivo at 1 mg/kg (Plasmodium berghei [11]): 22.1%
5 | O=C(CC1CCC2(CC1)OOC1(OO2)C2CC3CC(C2)CC1C3)Nc1ccc(NC(=O)CC2CCC3(CC2)OOC2(OO3)C3CC4CC(C3)CC2C4)cc1 (stereo unspecified) | 77600 |  | 58.4 | > 100000 |  |  | 
6 | C[C@H]1[C@@H](O)O[C@@H]2O[C@@]3(C)CC[C@H]4[C@H](C)CC[C@@H]1[C@@]24OO3 [ARTENIMOL] | 66100 |  | 3.5 | 400 |  |  | Activity (HL-60 [12]): Active
7 | O=C(CC1CCC2(CC1)OOC1(CCCCC1)OO2)NCc1cccc(CNC(=O)CC2CCC3(CC2)OOC2(CCCCC2)OO3)c1 |  |  | 38.6 |  |  |  | 
8 | CN1CCN(C2CCN(C(=O)CC3CCC4(CC3)OOC3(OO4)C4CC5CC(C4)CC3C5)CC2)CC1 (stereo unspecified) |  |  |  |  |  |  | IC50 (Plasmodium falciparum [13]): 0.9 nM
9 | O=C(CC1CCC2(CC1)OOC1(CCCCC1)OO2)NCCCNC(=O)CC1CCC2(CC1)OOC1(CCCCC1)OO2 |  |  | 21.3 |  |  |  | 
10 | O=C(CC1CCC2(CC1)OOC1(OO2)C2CC3CC(C2)CC1C3)NCCNC(=O)CC1CCC2(CC1)OOC1(OO2)C2CC3CC(C2)CC1C3 (stereo unspecified) |  | 8.9 | 16.9 |  | 7040 | 62700 | 
11 | O=C(CC1CCC2(CC1)OOC1(OO2)C2CC3CC(C2)CC1C3)NCCCNC(=O)CC1CCC2(CC1)OOC1(OO2)C2CC3CC(C2)CC1C3 (stereo unspecified) | 22900 | 24.6 | 4.7 | 20200 | 2530 | 62100 | Activity (HL-60 [14]): Active
12 | CCN(CC)CCCC(C)Nc1ccnc2cc(Cl)ccc12 (stereo unspecified) [CHLOROQUINE] |  |  |  |  |  | 97700 | 
13 | C[C@H]1[C@H](OC(=O)CCC(=O)O)O[C@@H]2O[C@@]3(C)CC[C@H]4[C@H](C)CC[C@@H]1[C@@]24OO3 [ARTESUNATE] | 38800 |  | 1.6 | 2000 |  |  | ED50 (Plasmodium berghei [7]): 1.6 mg/kg; inhibition in vivo at 3 mg/kg (Plasmodium berghei [8]): 62.4%; inhibition in vivo at 10 mg/kg (Plasmodium berghei [9]): 95.2%; inhibition in vivo at 30 mg/kg (Plasmodium berghei [10]): 99.7%; inhibition in vivo at 1 mg/kg (Plasmodium berghei [11]): 38.5%
14 | O=C(CC1CCC2(CC1)OOC1(OO2)C2CC3CC(C2)CC1C3)NCCCN1CCN(CCCNC(=O)CC2CCC3(CC2)OOC2(OO3)C3CC4CC(C3)CC2C4)CC1 (stereo unspecified) |  |  | 3.5 |  |  |  | ED50 (Plasmodium berghei [7]): 7.7 mg/kg; inhibition in vivo at 3 mg/kg (Plasmodium berghei [8]): 43.2%; inhibition in vivo at 10 mg/kg (Plasmodium berghei [9]): 46.2%; inhibition in vivo at 30 mg/kg (Plasmodium berghei [10]): 64.5%; inhibition in vivo at 1 mg/kg (Plasmodium berghei [11]): 36.1%
15 | O=C(CC1CCC2(CC1)OOC1(OO2)C2CC3CC(C2)CC1C3)Nc1cccc(NC(=O)CC2CCC3(CC2)OOC2(OO3)C3CC4CC(C3)CC2C4)c1 (stereo unspecified) | 92500 | 102 | 57.2 | > 100000 | 1320 | 134000 | 
16 | O=C(CC1CCC2(CC1)OOC1(CCCCC1)OO2)NCCCN1CCN(CCCNC(=O)CC2CCC3(CC2)OOC2(CCCCC2)OO3)CC1 |  |  | 47.1 |  |  |  | ED50 (Plasmodium berghei [7]): 6.4 mg/kg; inhibition in vivo at 3 mg/kg (Plasmodium berghei [8]): 46.1%; inhibition in vivo at 10 mg/kg (Plasmodium berghei [9]): 54.3%; inhibition in vivo at 30 mg/kg (Plasmodium berghei [10]): 63.9%; inhibition in vivo at 1 mg/kg (Plasmodium berghei [11]): 29.9%
17 | O=C(CC1CCC2(CC1)OOC1(CCCCC1)OO2)NCCCCNC(=O)CC1CCC2(CC1)OOC1(CCCCC1)OO2 |  |  | 28.9 |  |  |  | 
18 | COc1cc([C@@H]2c3cc4c(cc3[C@H](O)[C@H]3COC(=O)[C@H]23)OCO4)cc(OC)c1OC [PODOFILOX] |  |  |  |  |  | 11.7 | 
19 | CC1(CCC(=O)NCCCN2CCN(CCCNC(=O)CCC3(C)OOC4(CCCCC4)OO3)CC2)OOC2(CCCCC2)OO1 (stereo unspecified) |  | 612 | 47.5 |  | 40.8 | 25000 | ED50 (Plasmodium berghei [7]): > 30 mg/kg; inhibition in vivo at 3 mg/kg (Plasmodium berghei [8]): 22.3%; inhibition in vivo at 10 mg/kg (Plasmodium berghei [9]): 21.4%; inhibition in vivo at 30 mg/kg (Plasmodium berghei [10]): 33.2%; inhibition in vivo at 1 mg/kg (Plasmodium berghei [11]): 2.1%
